In US4760023A, “[21-leucine] human urogastrone, corresponding gene, corresponding recombinant plasmid, transformed cell and process for production thereof” (Wakunaga Seiyaku Kabushiki Kaisha, priority 1983, dated 1988):

How the values were obtained:
KB cell EGF receptor = molecular target: T1, KB cell EGF receptor (Homo sapiens, UniProt P00533); experiment: Radioreceptor assay (RRA) using KB cells, competition with 125I-mEGF; assay type: binding; conditions: FIG. 2
T1 construct: endogenous in cells; host or cells: KB cells (ATCC No. CCL17), intact cells in suspension
Procedure: RRA of [21-L] hUG was carried out using KB cells (ATCC No. CCL17) derived from a human nasopharyngeal epidermoid carcinoma in the light of the process of A. King et al [see J.B.C., 257, 3053 (1982)]. More specifically, monolayer culturing was carried out in DME medium in a 800-ml flask. The culture medium was removed, and cells were peeled with a phosphate buffer salt solution (PBS) containing 0.05% of EDTA to prepare a cell suspension. Then, the cells were washed 2 times with Hank's balanced salt solution (HBSS) containing 20 mM Hepes (pH 7.4). Then, the cells were suspended in a binding solution (DME medium, 20 mM Hepes, pH 7.4, 0.35 g/l of NaHCO3 and 100 μg/ml of Streptomycin), and the cell number was calculated and the cell density was adjusted to from 300,000 to 400,000 per 0.2 ml of the binding solution. The suspension was poured into tubes (0.2 ml in each tube), and 0.2 ml each of sample containing [21-L] hUG and ^125 I-mEGF (mouse EGF) at various concentrations were added into the tubes, respectively. Incubation was carried out at 37° C. for 1 hour. The cells were washed 3 times with ice-cold HBSS and suspended in 10% TCA, and the cells were separated from the solution by filtration through a glass filter. TCA was removed with acetone, and counting of radioactivity associated with the cells was performed by using a scintillation counter. […]

mouse 3T3 cell = molecular target: T2, mouse 3T3 cell (Mus musculus, UniProt Q01279); experiment: RRA using mouse 3T3 cell; assay type: binding
T2 construct: endogenous in cells; host or cells: mouse 3T3 cells
Procedure: RPA using mouse 3T3 cell was carried out according to the process of C.

mouse 3T3 cells [1] = experiment: Bioassay of activity promoting proliferation of mouse 3T3 cells (viable cell count); assay type: cell-based; conditions: 4 days, 0.5% FBS-DME, FIG. 3
Procedure: The activity of promoting proliferation of cells was determined by the following procedure. More specifically, monolayer culturing of mouse 3T3 cells was carried out in a 25-cm^2 flask, and the cells were treated with calcium- and magnesium-free HBSS (CMF-HBSS) containing 0.02% of EDTA and 0.05% of trypsin to prepare cell suspensions. The cells were washed with CMF-HBSS and resuspended in DME medium containing 0.5% of fetal bovine serum (FBS), and the number of viable cells was counted. The cell suspension was diluted with 0.5% FBS-DME medium so that the cell number was 2×10^4 per ml. Then, 1 ml of the cell suspension was seeded per 35 mm dish and incubation was carried out overnight in a CO2 incubator. Peptide fractions containing different concentrations of [21-L] hUG and mEGF as a control were dissolved in 0.5% FBS-DME medium and the mixtures were filtered by a Millipore filter (type GV, wpo 2500), and 1 ml aliquots of the mixtures were added to the above cell suspension. Incubation was carried out for 4 days in a CO2 incubator (5% CO2 -95% air, 37° C.). Viable cells were stained with Trypan Blue, and the number of the viable cells was counted using a counting chamber. […]

mouse 3T3 cells [2] = experiment: Bioassay of activity stimulating thymidine incorporation; assay type: cell-based; conditions: for 3H-Thymidine In-take Amount cpm: 18 hours; for 3H-Thymidine In-take Amount Δcpm: minus no addition
Procedure: Incorporation of thymidine was determined according to a modification of the method of Aharon Aharonov et al [J.B.C., 253, 3970 (1978)] and the method of Jimenez de Asua et al [PNAS, 72, 2724 (1975)]. More specifically, 6×10^3 of mouse 3T3 cells were seeded in 0.5 ml of 5% FBS-DME medium in a multi-well dish, and culturing was done for 5 days to grow as monolayers to sub-confluency. The medium was removed, and the cells were washed with PBS, and 0.5 ml of 0.5% FBS-DME medium was added. Incubation was done overnight. Then, 0.5 ml of 0.5% FBS-DME medium containing [21-L] hUG at a predetermined concentration or mEGF was added, and incubation was further continued for 18 hours. Then, 200 nci of [^3 H]-thymidine was added, and incubation was carried out at 55° C. for 30 minutes. The cells were washed twice with cold HBSS containing 20 mM Hepes (pH 7.4) and washed twice with 5% TCA. Then, 200 μl of 1N NaOH was added, and incubation was carried out at 55° C. for 30 minutes to dissolve DNA. Then, 50 μl of the DNA solution was taken and 25 μl of 2N HCl was added for neutralization. The radio-activity of Thymidine was measured by means of a liquid scintillation counter.

[3] = tested on: ulcer caused by ligation of the pylorus; experiment: Inhibitory effect on generation of stomach ulcer (pylorus ligation); assay type: in vivo, rats of the Wister strain; conditions: rat
Procedure: The inhibitory effect of [21-L] hUG on generation of ulcer was examined on the basis of the activity of EGF of anti-gastric acid secretion [Gut, 16, 887 (1975)].
7-weeks-old male rats of the Wister strain were bred and caused to fast for 24 hours before ligation of the pylorus. The pylorus was ligated for 17 hours, and ulcer was caused by fasting and abstinence from drinking. The peptide fraction containing [21-L] hUG (corresponding to 500 μg of the protein) or physiological saline as a control was hypodermically injected 30 minutes before ligation of the pylorus. Each group tested consisted of 5 rats, and the anti-ulcer action was evaluated by calculating the ulcer index. More specifically, the long and short diameters of the olcerous erosion generated by ligation of the pylorus were measured under an anatomical microscope, and the sum of products of the long and short diameters per rat was defined as the ulcer coefficient.

In the case of “[21-leucine] human urogastrone (NSDSECPLSHDGYCLHDGVCLYIEALDKYACNCVVGYIGERCQYRDLKWWELR; Epidermal growth factor; UniProt P01133 971-1023, looked up, variant M21L) [[21-L] hUG, 53-residue polypeptide, same as hUG except that the 21st amino acid is Leu; produced in E. coli, released by cyanogen bromide]”, the “inhibition of binding of 125I-mEGF to the KB cell EGF receptor” value (KB cell EGF receptor; 37° C., 1 hour) is reported as “competitively inhibits binding”, the “dosage-response curve in RRA compared with mEGF” value (KB cell EGF receptor) is reported as “in good agreement with that of mEGF” and the “RRA result using mouse 3T3 cell” value (mouse 3T3 cell) is reported as “results similar to the results obtained in RRA using KB cell”. For the same substance, the “dose-response curve of cell proliferation compared with mEGF” value (mouse 3T3 cells [1]) was “in good agreement with the curve for mEGF”, the “3H-Thymidine In-take Amount cpm” value (mouse 3T3 cells [2]; 0.73 μg/ml) was 17,170.8 cpm and the “3H-Thymidine In-take Amount Δcpm” value (mouse 3T3 cells [2]; 0.73 μg/ml) was 12,531.3 cpm. The “3H-Thymidine In-take Amount cpm” value (mouse 3T3 cells [2]; 1.46 μg/ml) was 11,761.7 cpm, the “3H-Thymidine In-take Amount Δcpm” value (mouse 3T3 cells [2]; 1.46 μg/ml) was 7,122.2 cpm and the “3H-Thymidine In-take Amount cpm” value (mouse 3T3 cells [2]; 2.93 μg/ml) was 13,567.0 cpm. The “3H-Thymidine In-take Amount Δcpm” value (mouse 3T3 cells [2]; 2.93 μg/ml) was 8,927.5 cpm, the “thymidine incorporation (in words)” value (mouse 3T3 cells [2]; mouse 3T3 cells) was “promotes greatly thymidine incorporation” and the “Ulcer Coefficient” value ([3]; 500 μg of the protein hypodermically 30 minutes before ligation, pylorus ligated 17 hours) was 44.5 ± 18.0 mm^2. For the same substance, the “generation of the ulcer (in words)” value ([3]; pylorus ligation) was “tends to inhibit generation of the ulcer”.

“mouse epidermal growth factor (NSYPGCPSSYDGYCLNGGVCMHIESLDSYTCNCVIGYSGDRCQTRDLRWWELR; not fully specified; Epidermal growth factor; UniProt P01132 977-1029, looked up) [mEGF, mEGF (Toyobo, Japan), used for comparison]” was tested, and the “3H-Thymidine In-take Amount cpm” value (mouse 3T3 cells [2]; 1 ng/ml) was 14,510.5 cpm, the “3H-Thymidine In-take Amount Δcpm” value (mouse 3T3 cells [2]; 1 ng/ml) was 9,871.0 cpm and the “3H-Thymidine In-take Amount cpm” value (mouse 3T3 cells [2]; 2 ng/ml) was 13,387.4 cpm. For the same substance, the “3H-Thymidine In-take Amount Δcpm” value (mouse 3T3 cells [2]; 2 ng/ml) was 8,747.9 cpm, the “3H-Thymidine In-take Amount cpm” value (mouse 3T3 cells [2]; 5 ng/ml) was 14,695.2 cpm and the “3H-Thymidine In-take Amount Δcpm” value (mouse 3T3 cells [2]; 5 ng/ml) was 10,055.7 cpm. The “3H-Thymidine In-take Amount cpm” value (mouse 3T3 cells [2]; 10 ng/ml) was 14,094.6 cpm and the “3H-Thymidine In-take Amount Δcpm” value (mouse 3T3 cells [2]; 10 ng/ml) was 9,455.1 cpm.
